# Experimental data: patent US8232273B2, “Heterocyclic compounds and methods of use” (Genentech, Inc., priority 2008, dated 2012)
# pEC50, pIC50, pKi: −log10 of the molar value.
# What was measured:
# Bcl-xL (GST-Bcl-xL) [1] = target: T1, Bcl-xL (GST-Bcl-xL) (Homo sapiens, UniProt Q07817); assay: TR-FRET binding assay, competition with F-Bak for the Bcl-xL binding site; details: values listed in the order of Table 1, read-out: TR-FRET assay results (Ki), Bcl-xL
# Bcl-2 (GST-Bcl-2) = target: T2, Bcl-2 (GST-Bcl-2) (Homo sapiens, UniProt P10415); assay: TR-FRET binding assay, competition with F-Bak for the Bcl-2 binding site; details: Bcl-2, for comparison (selectivity)
# T2 construct: made in house
# T2 sequence (P10415 whole entry, species assumed): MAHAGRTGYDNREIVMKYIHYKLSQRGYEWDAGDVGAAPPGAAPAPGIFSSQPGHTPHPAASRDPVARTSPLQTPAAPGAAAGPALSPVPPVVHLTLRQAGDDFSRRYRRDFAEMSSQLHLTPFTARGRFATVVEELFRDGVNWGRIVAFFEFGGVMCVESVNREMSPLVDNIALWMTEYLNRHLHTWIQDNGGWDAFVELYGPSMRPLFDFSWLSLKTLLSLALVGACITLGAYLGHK
# Protocol: For each assay plate, a probe/antibody and protein/antibody/probe mixture were included as a negative and a positive control, respectively. Fluorescence was measured on the Envision (Perkin Elmer) using a 340/35 nm excitation filter and 520/525 (F-Bak) and 495/510 nm (Tb-labeled anti-his antibody) emission filters. Dissociation constants (Ki) were determined using Wang's equation (see, Wang, Z. X. An exact mathematical expression for describing competitive binding of two different ligands to a protein molecule. FEBS Lett. 1995 360:111-114). The TR-FRET assay can be performed in the presence of varying concentrations of human serum (HS) or fetal bovine serum (FBS). For comparison, the measurement of the competition of compounds of the invention for other Bcl-2 family protein binding sites (e.g., Bcl-2, Mcl-1) using the TR-FRET binding assay was accomplish by substituting GST-Bcl-xL in the TR-FRET assay with other GST-labeled protein, e.g., GST-Bcl-2, GST-Mcl-1, prepared in-house.
# Bcl-xL (GST-Bcl-xL) [2] = target: T1, Bcl-xL (GST-Bcl-xL); assay: AlphaScreen Bcl-xL binding assay, competition with biotinylated Bim peptide; parameters: made in house; details: values listed in the order of Table 1; read-out: Alphascreen results (IC50) against the Bcl-xL protein
# Summary of the method: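 Acceptor beads with GST-Bcl-xL were combined with donor beads carrying biotinylated Bim peptide after each bead mix was preincubated 30 min at room temperature. Compounds in DMSO, 2-fold serially diluted, were incubated 30 min at room temperature before donor addition, with duplicate plates. Percent inhibition was taken against no-protein and DMSO controls, and IC50 was calculated.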
# platelets = assay: Cell viability assay for platelets (platelet rich plasma, CellTiter-Glo); format: cell-based; details: approximately 4 hours at 37 C
# Protocol: Platelet rich plasma (PRP) was incubated with a compound of the invention for approximately 4 hours at 37° C. After incubation, platelets were equilibrated to room temperature for 20 minutes and then and equal volume of CELL TITER-GLO™ reagent (Promega Corporation) was added. Samples were mixed for two minutes and then allowed to equilibrate for an additional 10 minutes at room temperature. The luminescence generated from the samples was quantitated using a LJL Analyst plate reader. Data analysis was performed using GraphPad Prism 4.0.
# T1 sequence (Q07817 whole entry, species assumed): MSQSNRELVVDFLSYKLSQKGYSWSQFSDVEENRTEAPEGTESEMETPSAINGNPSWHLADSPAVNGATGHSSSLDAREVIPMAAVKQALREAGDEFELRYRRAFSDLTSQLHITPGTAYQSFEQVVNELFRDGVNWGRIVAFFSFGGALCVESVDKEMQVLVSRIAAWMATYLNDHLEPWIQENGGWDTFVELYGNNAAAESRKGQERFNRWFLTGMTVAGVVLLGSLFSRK
Compound,pKi (Bcl-xL (GST-Bcl-xL) [1]),pKi (Bcl-2 (GST-Bcl-2)),pIC50 (Bcl-xL (GST-Bcl-xL) [2]),pEC50 (platelets)
"O=C(Nc1nc2ccccc2s1)c1cccc2c1CN(c1nc(C(=O)O)c(CCNS(=O)(=O)c3cccc([N+](=O)[O-])c3)s1)CC2 [Example 70, 2-[8-(Benzothiazol-2-ylcarbamoyl)-3,4-dihydro-1H-isoquinolin-2-yl]-5-[2-(3-nitro-benzenesulfonylamino)-ethyl]thiazole-4-carboxylic acid]",7.40,6.30,6.59,
"CN(C)CCCNc1ncnc2c1cnn2-c1ccc(OCCCc2sc(N3CCc4cccc(C(=O)Nc5nc6ccccc6s5)c4C3)nc2C(=O)O)cc1 [Example 54, 2-(8-(benzo[d]thiazol-2-ylcarbamoyl)-3,4-dihydroisoquinolin-2(1H)-yl)-5-(3-(4-(4-(3-(dimethylamino)propylamino)-1H-pyrazolo[3,4-d]pyrimidin-1-yl)phenoxy)propyl)thiazole-4-carboxylic acid]",10.30,,,6.88
"CN(C)CCOc1ccc(OCCCc2sc(N3CCc4cccc(C(=O)Nc5nc6ccccc6s5)c4C3)nc2C(=O)O)cc1 [Example 75, 2-[8-(Benzothiazol-2-ylcarbamoyl)-3,4-dihydro-1H-isoquinolin-2-yl]-5-{3-[4-(2-dimethylamino-ethoxy)-phenoxy]-propyl}-thiazole-4-carboxylic acid]",10.30,,10.00,8.05
"CN1CCN(c2cccc(OCCCc3sc(N4CCc5cccc(C(=O)Nc6nc7ccccc7s6)c5C4)nc3C(=O)O)c2)CC1 [Example 87, 2-[8-(Benzothiazol-2-ylcarbamoyl)-3,4-dihydro-1H-isoquinolin-2-yl]-5-{3-[3-(4-methyl-piperazin-1-yl)-phenoxy]-propyl}-thiazole-4-carboxylic acid]",10.30,,,8.52
"CN(C)CCOc1ccc(-c2ccc(OCCCc3ccc(N4CCc5cccc(C(=O)Nc6nc7ccccc7s6)c5C4)nc3C(=O)O)cc2)nc1 [Example 95, 6-[8-(Benzothiazol-2-ylcarbamoyl)-3,4-dihydro-1H-isoquinolin-2-yl]-3-(3-{4-[5-(2-dimethylamino-ethoxy)-pyridin-2-yl]-phenoxy}-propyl)-pyridine-2-carboxylic acid]",10.30,,,8.52
"O=C(Nc1nc2ccccc2s1)c1cccc2c1CN(c1ccc(CCCOc3ccc(-c4ncccn4)cc3)c(C(=O)O)n1)CC2 [Example 96, 6-[8-(Benzothiazol-2-ylcarbamoyl)-3,4-dihydro-1H-isoquinolin-2-yl]-3-[3-(4-pyrimidin-2-yl-phenoxy)-propyl]-pyridine-2-carboxylic acid]",10.00,,,6.45
"O=C(Nc1nc2ccccc2s1)c1cccc2c1CN(c1nc(C(=O)O)c(CCOc3ccccc3)s1)CC2 [Example 76, 2-(8-(benzo[d]thiazol-2-ylcarbamoyl)-3,4-dihydroisoquinolin-2(1H)-yl)-5-(2-phenoxyethyl)thiazole-4-carboxylic acid]",,6.46,,
"CC(C)n1cnc2c(-c3ccc(OCCCc4sc(N5CCc6cccc(C(=O)Nc7nc8ccccc8s7)c6C5)nc4C(=O)O)cc3)ncnc21 [Example 52, 2-(8-(benzo[d]thiazol-2-ylcarbamoyl)-3,4-dihydroisoquinolin-2(1H)-yl)-5-(3-(4-(9-isopropyl-9H-purin-6-yl)phenoxy)propyl)thiazole-4-carboxylic acid]",10.30,6.89,,
"CN(C)CCOc1ccc(-c2ccc(OCCCc3sc(N4CCc5cccc(C(=O)Nc6nc7ccccc7s6)c5C4)nc3C(=O)O)cc2)nc1 [Example 90, 2-[8-(Benzothiazol-2-ylcarbamoyl)-3,4-dihydro-1H-isoquinolin-2-yl]-5-(3-{4-[5-(2-dimethylamino-ethoxy)-pyridin-2-yl]-phenoxy}-propyl)-thiazole-4-carboxylic acid]",10.30,,,8.52
"N#Cc1nccnc1-c1ccc(OCCCc2sc(N3CCc4cccc(C(=O)Nc5nc6ccccc6s5)c4C3)nc2C(=O)O)cc1 [Example 86, 2-[8-(Benzothiazol-2-ylcarbamoyl)-3,4-dihydro-1H-isoquinolin-2-yl]-5-{3-[4-(3-cyano-pyrazin-2-yl)-phenoxy]-propyl}-thiazole-4-carboxylic acid]",10.15,,,8.00
"O=C(Nc1nc2ccccc2s1)c1cccc2c1CN(c1nc(C(=O)O)c(CCCOc3ccc(-c4csc5c(NCCCN6CCCC6)ncnc45)cc3)s1)CC2 [Example 78, 2-[8-(Benzothiazol-2-ylcarbamoyl)-3,4-dihydro-1H-isoquinolin-2-yl]-5-(3-{4-[4-(3-pyrrolidin-1-yl-propylamino)-thieno[3,2-d]pyrimidin-7-yl]-phenoxy}-propyl)-thiazole-4-carboxylic acid]",10.30,,,8.52
"CN1CCN(c2ncnc3c(-c4ccc(OCCCc5sc(N6CCc7cccc(C(=O)Nc8nc9ccccc9s8)c7C6)nc5C(=O)O)cc4)csc23)CC1 [Example 79, 2-[8-(Benzothiazol-2-ylcarbamoyl)-3,4-dihydro-1H-isoquinolin-2-yl]-5-(3-{4-[4-(4-methyl-piperazin-1-yl)-thieno[3,2-d]pyrimidin-7]-phenoxy}-propyl)-thiazole-4-carboxylic acid]",10.00,,,8.52
"O=C(Nc1nc2ccccc2s1)c1cccc2c1CN(c1nc(C(=O)O)c(CCOc3cccc(-n4ncc5cncnc54)c3)s1)CC2 [Example 50, 5-(2-(3-(1H-pyrazolo[3,4-d]pyrimidin-1-yl)phenoxy)ethyl)-2-(8-(benzo[d]thiazol-2-ylcarbamoyl)-3,4-dihydroisoquinolin-2(1H)-yl)thiazole-4-carboxylic acid]",8.70,,8.00,
"N#C/C=C/c1cccc(OCCCc2sc(N3CCc4cccc(C(=O)Nc5nc6ccccc6s5)c4C3)nc2C(=O)O)c1 [Example 30, (E)-2-(8-(benzo[d]thiazol-2-ylcarbamoyl)-3,4-dihydroisoquinolin-2(1H)-yl)-5-(3-(3-(2-cyanovinyl)phenoxy)propyl)thiazole-4-carboxylic acid]",9.40,,9.52,
"O=C(Nc1nc2ccccc2s1)c1cccc2c1CN(c1nc(C(=O)O)c(CCCOc3ccc(OCCN4CCCC4)cc3)s1)CC2 [Example 114, 2-(8-(benzo[d]thiazol-2-ylcarbamoyl)-3,4-dihydroisoquinolin-2(1H)-yl)-5-(3-(4-(2-(pyrrolidin-1-yl)ethoxy)phenoxy)propyl)thiazole-4-carboxylic acid]",10.40,,9.85,
